Molecules are shown by their SMILES. Values after ≈ are worked out from the molar mass of the structure shown. Where two headings read alike, the source gives them in different places. Some results are limits rather than exact numbers.

One data set concerns the target T1, human recombinant sEH (Homo sapiens, UniProt P34913).
T1 sequence (P34913 1-555): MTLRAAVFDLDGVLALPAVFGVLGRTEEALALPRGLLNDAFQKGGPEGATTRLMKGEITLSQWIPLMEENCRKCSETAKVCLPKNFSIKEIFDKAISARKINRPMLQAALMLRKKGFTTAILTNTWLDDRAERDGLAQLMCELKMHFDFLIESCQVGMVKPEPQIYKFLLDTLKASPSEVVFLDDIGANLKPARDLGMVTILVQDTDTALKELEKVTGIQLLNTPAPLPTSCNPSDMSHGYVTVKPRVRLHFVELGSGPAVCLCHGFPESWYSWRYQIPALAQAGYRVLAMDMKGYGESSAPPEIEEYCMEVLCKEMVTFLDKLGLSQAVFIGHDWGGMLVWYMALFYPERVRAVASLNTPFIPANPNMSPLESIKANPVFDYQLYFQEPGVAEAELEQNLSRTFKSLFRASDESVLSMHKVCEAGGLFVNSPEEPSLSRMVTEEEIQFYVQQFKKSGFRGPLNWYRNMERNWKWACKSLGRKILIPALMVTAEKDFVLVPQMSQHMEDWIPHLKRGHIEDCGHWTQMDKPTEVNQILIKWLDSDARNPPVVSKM
In words: Human sEH inhibition, kinetic fluorescent assay. It counts as biochemical. The following applies: kinetic fluorescent assay; means of three separate experiments; read-out: Human sEH IC50.

The test system of data set [1] is LPS-stimulated C57bl/6j peritoneal macrophages. The experiment in a line: Suppression of NO synthesis in LPS-stimulated peritoneal macrophages (Griess). It counts as cell-based, mice. The following applies: for IC50: Mus musculus, Peritoneal macrophage, read-out: NO Synthesis, IC50 ± SE. From the text:
For screening designed compounds according to their probable ability to limit inflammation, we used a test on the inhibition of LPS-induced activation of primary murine macrophages. The most prominent anti-inflammatory activity, defined as the suppression of nitric oxide synthesis by LPS-stimulated macrophages, was evident for compounds 4a and 5b. At the same time, for 4a, the cytotoxic concentration was 4.7–18.4 times higher than the effective anti-inflammatory concentration. […] According to the data obtained, there is no direct correlation between the efficiency of the inhibition of sEH and NO synthesis, which requires further studies of the anti-inflammatory activity of the investigated compounds.
(§1) Peritoneal macrophages (PM) were isolated from the peritoneal exudate of 30 male C57bl/6j mice. To accumulate PM, 1 mL of 3% peptone solution was injected intraperitoneally. After 3 days, the mice were euthanized by cervical dislocation. Cells of peritoneal exudate were obtained by aseptic washing of the abdominal cavity with 5 mL of sterile Hanks’s solution (+4–6 °C) without calcium and magnesium ions. The total number and viability of cells were assessed in a Goryaev counting chamber (Russia) with a 0.4% trypan blue staining (Sigma-Aldrich, St. Louis, MO, USA). The cell concentration was adjusted to 1.0 × 10^6 cells/mL in DMEM (Gibco) supplemented with 2 mM L-glutamine (Gibco), 10% heat-inactivated fetal bovine serum (BioClot, Passau, Germany), 100 U/mL penicillin and […] streptomycin (Gibco) and plated 200 μL/well in 96-well transparent plates (SPL Life Sciences Co., Ltd., Pochon, Korea). After 2 h at 37 °C in a humidified atmosphere with 5% CO2, wells were washed to remove nonadherent cells. After 24 h of incubation, 20 μL of the supernatants were substituted with 20 μL of solutions of the test compounds, followed with E. coli O127:B8 LPS (100 ng/mL final concentration) after 30 min. Experiments were run in 3 independent replicates.
The accumulation of nitrite anion (a stable decomposition product of NO produced by iNOS) in the supernatants was determined using a standard Griess reagent. Briefly, 50 μL of supernatants collected 22 h after incubation of PM with the test and control compounds were mixed with 50 μL of 1% sulfonamide in 2.5% H3PO4 and 50 μL of 0.1% N-(1-naphthyl) ethylenediamine in 2.5% H3PO4. After incubation at 23 °C for 10 min. in an orbital shaker, the optical density was determined at a wavelength of 550 nm with a microplate reader Infinite M200 PRO (Tecan, Austria).
Background: The Griess reaction detects nitrite, a stable product of nitric oxide.

A short description of data set [2]: MTT cytotoxicity on peritoneal macrophages. It counts as cell-based, mice. The note with it: male, C57bl/6j, mouse, 24 h incubation, read-out: MTT CC50 ± SE. The procedure:
as §1
(§2) The activity of lactate dehydrogenase (LDH) in a cell culture medium served as a marker of membrane permeability and cell death. Aliquots of supernatants were taken after 24 h of inoculation with test compounds, mixed with 250 μL of […] NADH solution in 54 mM phosphate-buffered saline (pH 7.5). Then, 25 μL of a 6.48 mM pyruvate solution was added to the mixture. The optical density was followed at a wavelength of 340 nm for 20 min. The MTT test was performed 24 h after the incubation of cells with the tested compounds. Briefly, 20 μL of MTT solution was added to each well and incubated at 37 °C in a humidified atmosphere containing 5% CO2 for 4 h. The culture medium was aspirated, the cells were lysed and formazan crystals dissolved in 150 μL of DMSO. The plates were shaken at room temperature for 10 min, and the optical density was measured in a microplate reader Infinite M200 PRO (Tecan Group Ltd., Männedorf, Switzerland) at a wavelength of 565 nm.

In data set [3] the test system is C57bl/6j peritoneal macrophages. The experiment in a line: MTT cytotoxicity on peritoneal macrophages. The note with it: Mus musculus, Peritoneal macrophage, read-out: EC50 ± SEM, C57bl/6j. It counts as cell-based, mice. The procedure: as §1, §2
Data set [4] in a line: LDH release cytotoxicity on peritoneal macrophages. It counts as cell-based, mice. The following applies: male, C57bl/6j, mouse, 24 h incubation, read-out: LDH CC50 ± SE. The procedure:
as §1
as §2, with “Briefly, 20 μL of MTT solution was added to each well and incubated at 37 °C in a humidified atmosphere containing 5% CO2 for 4 h. The culture medium was aspirated, the cells were lysed and formazan crystals dissolved in 150 μL of DMSO.” left out
For orientation: LDH leaks from cells whose membrane has failed.

In data set [5] the test system is human fibroblast cells (MRC-5). The experiment in a line: MTT test with human fibroblast cells. The following applies: read-out: EC50 ± SEM, MRC-5. It counts as cell-based. The procedure: The studied compounds were added in concentrations of 1, 3, 6, 12, 25, 50, and 100 μM.
Human fibroblast cells (MRC-5) were used in this study. The cells were cultured in the DMEM medium that contained 10% embryonic calf serum in a CO2 incubator at 37 °C. The tested compounds were dissolved in DMSO and added to the cellular culture at the required concentrations. Three wells were used for each concentration. The cells that were incubated without the compounds were used as a negative control, and doxorubicin was used as the positive one. Cells were placed on 96-well microliter plates and cultivated at 37 °C in 5% CO2/95% air for 72 h. The cell viability was assessed through an MTT (3-(4,5-dimethylthiazol-2-yl)-2,5-phenyl-2H-tetrazolium bromide) conversion assay. A total of 1% MTT was added to each well. Three hours later, isopropanol was added and mixed for 15 min. Optical density (OD) of the samples was measured on a ThermoFischer multi-well spectrophotometer at a wavelength of 450 nm. […] The experimental results are given as average values obtained from three independently conducted experiments.
On the technique in general: Formazan colour is commonly taken as a measure of viable cells.

The subject of a further data set is E. coli PQ37. In words: SOS chromotest. It counts as cell-based. The note with it: induction factor. How it is done:
For the final safety check of selenoureas, the SOS chromotest was carried out. […] The results are presented as the mean value of induction factor I (c) ± SEM based on the results of three independent experiments, each of which included three replicates (Table 5).
The SOS chromotest was carried out according to the standard procedure, with recommended additions. The E. coli PQ37 strain was provided by P. Quillardet (Paris, France). The test compounds were dissolved in dimethyl sulfoxide (DMSO) (also used as a negative control) and added to the bacterial medium in the required concentrations; the concentration of the injected solutions was 1% by volume.

Data set [6] is described as follows: Solubility in sodium phosphate buffer. It counts as physicochemical. The following applies: aqueous buffer, kinetic from dmso stock; sodium phosphate buffer (pH 7.4, 0.1 M) containing 1% DMSO. How it is done:
To our knowledge, no systematic studies of selenoureas as sEH inhibitors have been performed previously. The potency of the compounds was determined against the human recombinant sEH and their solubility assessed in phosphate-buffered saline (Table 1).

The molecule `CC12CC3CC(C)(C1)CC(NC(=[Se])NCc1ccccc1)(C3)C2` [5f, 1-(3,5-Dimethyladamantan-1-yl)-3-benzylselenourea] registered a melting point of 112 to 113 °C. Moreover, the concentration for half-maximal inhibition (IC50) at human recombinant sEH was 48.5 nM.

Turning to `[Se]=C(NCc1ccccc1)NCC12CC3CC(CC(C3)C1)C2` [5b, 1-[(Adamantan-1-yl)methyl]-3-benzylselenourea], the melting point lay within 158 to 159 °C. In addition, the IC50 on human recombinant sEH came out at 200 nM. Moreover, the “cytotoxic concentration versus effective anti-inflammatory concentration” value in data set [1] (CC50 (MTT, LDH) over NO synthesis IC50, peritoneal macrophages) is reported as “comparable”. Also, the concentration for half-maximal inhibition (IC50) in data set [1] (22 h) is 27800 ± 5200 nM. In addition, the 50% cytotoxic concentration (CC50) at 24 h in data set [2] turned out to be 17700 ± 5700 nM. Moreover, in data set [3], the EC50 came to 17700 ± 5660 nM. Besides, the CC50 at 24 h in [4] was found to be 20400 ± 5300 nM. Further, in data set [5] (MRC5, 72 h), the EC50 came out at 3040 ± 660 nM. In the data set on E. coli PQ37 (compound 10 µM), the “I(c) ± SE, 10 µM” value was found to be 1.12 ± 0.18. For the same molecule, the “I(c) ± SE, 25 µM” value in the data set on E. coli PQ37 (compound 25 µM) amounted to 0.95 ± 0.13. Also, the “I(c) ± SE, 50 µM” value in the data set with E. coli PQ37 (compound 50 µM) was determined as 0.99 ± 0.11. Moreover, the “I(c) ± SE, 100 µM” value in the data set on E. coli PQ37 (compound 100 µM) turned out to be 0.97 ± 0.08.

In the case of `[Se]=C(NCc1ccccc1)NC1C2CC3CC(C2)CC1C3` (centres unmarked) [5g, 1-(Adamantan-2-yl)-3-benzylselenourea], the melting point fell in the range of 139 to 140 °C. In addition, the IC50 at human recombinant sEH was determined as 120 nM. For the same molecule, the solubility in [6] was 110 ± 10 µM (≈ 38.2 µg/mL).

Turning to `C[C@@H]1C[C@H]2[C@@H]3CCC4=CC(=O)C=C[C@]4(C)[C@@]3(F)[C@@H](O)C[C@]2(C)[C@@]1(O)C(=O)CO` [Dexamethasone, reference compound], the IC50 in data set [1] (LPS 100 ng/mL, supernatants after 22 h) came out at 3 ± 1 nM. The CC50 at 24 h in data set [2] (primary peritoneal macrophages) and in data set [4] (primary peritoneal macrophages) was above 100000 nM each time. For the same molecule, the EC50 in [3] (MTT, peritoneal macrophages of C57bl/6j mice) is above 100000 nM.

In data set [6], `CC(=O)N1CCC(NC(=O)NC23CC4CC(CC(C4)C2)C3)CC1` [compound 1153, reference compound] displayed a solubility of 970 ± 60 µM (≈ 310 µg/mL).

Consider `[Se]=C(NCCC12CC3CC(CC(C3)C1)C2)NCc1ccccc1` [5d, 1-[2-(Adamantan-1-yl)ethyl]-3-benzylselenourea], for which the melting point was in the range of 142 to 143 °C. Further, on human recombinant sEH, the IC50 worked out at 34.3 nM. This molecule showed a solubility in data set [6] of 140 ± 20 µM (≈ 52.6 µg/mL).

Take `CC(NC(=[Se])NCc1ccccc1)C12CC3CC(CC(C3)C1)C2` (centres unmarked) [5c, 1-[1-(Adamantan-1-yl)ethyl]-3-benzylselenourea]: the melting point is 154 to 155 °C. The IC50 at human recombinant sEH worked out at 274 nM. For the same molecule, the solubility in [6] stood at 110 ± 20 µM (≈ 41.3 µg/mL).

For `COc1cccc2c1C(=O)c1c(O)c3c(c(O)c1C2=O)C[C@@](O)(C(=O)CO)C[C@@H]3O[C@H]1C[C@H](N)[C@H](O)[C@H](C)O1` [doxorubicin, reference compound], the EC50 in data set [5] (MRC5, MTT, 72 h) was found to be 2410 ± 150 nM.

`[Se]=C(NCc1ccccc1)Nc1ccc(C23CC4CC(CC(C4)C2)C3)cc1` [5e, 1-[4-(Adamantan-1-yl)phenyl]-3-benzylselenourea] displayed a melting point of 147 to 148 °C. The 50% inhibitory concentration (IC50) at human recombinant sEH was found to be 204 nM. In data set [6], the solubility turned out to be 200 ± 20 µM (≈ 84.7 µg/mL).

In general, IC50 refers to the concentration needed to halve the response being measured. The term melting point denotes the temperature, or range, at which the solid turns liquid. What is called CC50 is the concentration that lowers cell viability or growth by half. One may read the solubility as the concentration that dissolves in the medium under given conditions.
